Values quoted from earlier work in patent US20190240144A1, “EFFERVESCENT DEFERIPRONE TABLET” (priority 2016, published 2019).

Details: in vivo

## CC(=O)N(O)CCCCCNC(=O)CCC(=O)N(O)CCCCCNC(=O)CCC(=O)N(O)CCCCCN [deferoxamine]
  half-life (t1/2): 5-10 minus
